Laboratory results: US8207216B2, “Benzofuran-3-yl(indol-3-yl) maleimides as potent GSK3 inhibitors” (The Board of Trustees of the University of Illinois, priority 2006, dated 2012)

Columns and labels:
[1] = molecular target: T1, recombinant human His6-GSK-3β (Homo sapiens, UniProt P49841); experiment: GSK-3β kinase assay, [γ32P] transfer to primed glycogen synthase peptide; format: biochemical; settings: for IC50: 10 μM ATP, 10 μM pGSM peptide, 30 minutes at 30° C., read-out: IC50 (nM), GSK-3β inhibition;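 on all read-outs here: phosphate incorporation quantified by liquid scintillation counting of the filters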
T1 construct: His6; purchased EMD Biosciences
T1 sequence (P49841 whole entry): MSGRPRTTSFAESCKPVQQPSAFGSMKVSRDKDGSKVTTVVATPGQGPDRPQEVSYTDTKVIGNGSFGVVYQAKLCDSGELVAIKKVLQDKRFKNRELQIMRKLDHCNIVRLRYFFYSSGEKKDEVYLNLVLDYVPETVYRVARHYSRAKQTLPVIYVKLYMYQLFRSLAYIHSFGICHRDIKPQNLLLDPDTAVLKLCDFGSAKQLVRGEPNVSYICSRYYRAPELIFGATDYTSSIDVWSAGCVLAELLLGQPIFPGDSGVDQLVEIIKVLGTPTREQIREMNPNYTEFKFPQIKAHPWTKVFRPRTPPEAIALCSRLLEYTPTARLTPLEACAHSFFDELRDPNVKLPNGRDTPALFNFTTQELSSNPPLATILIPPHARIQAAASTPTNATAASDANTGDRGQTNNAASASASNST

[2] = system: MIAPaCa-2; experiment: Antiproliferation MTS assay, pancreatic cancer cells; format: cell-based; settings: Homo sapiens, MIA PaCa-2; 72 hrs, MTS
[3] = molecular target: CDK-2/cyclinE (Homo sapiens, UniProt P24941); experiment: CDK-2/CyclinE inhibition (Reaction Biology); format: biochemical; settings: for IC50: tested at Reaction Biology, Inc.; for IC50 Ratio CDK-2/cyclinE GSK-3β: selectivity ratio

| Compound | IC50 [1] | also measured |
| --- | --- | --- |
| 3-(6-Chloro-5-methoxy-1-methyl-1H-indol-3-yl)-4-(6-methoxy-benzofuran-3-yl)-pyrrole-2,5-dione [Compound 14] | 870 ± 160 nM | Ki [1]: 580 nM |
| O=C1NC(=O)C(c2coc3ccc(F)cc23)=C1c1c[nH]c2ccccc12 [Compound 2, 3-(5-Fluoro-benzofuran-3-yl)-4-(1H-indol-3-yl)-pyrrole-2,5-dione] | 670 ± 40 nM | – |
| COc1cccc2c(C3=C(c4cn(C)c5ccccc45)C(=O)NC3=O)coc12 [Compound 4, 3-(7-Methoxy-benzofuran-3-yl)-4-(1-methyl-1H-indol-3-yl)-pyrrole-2,5-dione] | 180 ± 15 nM | – |
| O=C1NC(=O)C(c2coc3ccccc23)=C1c1c[nH]c2ccc(F)cc12 [Compound 5, 3-Benzofuran-3-yl-4-(5-fluoro-1H-indol-3-yl)-pyrrole-2,5-dione] | 360 ± 40 nM | IC50 [2]: 21000 nM |
| Cn1cc(C2=C(c3coc4cc(CO)ccc34)C(=O)NC2=O)c2cc(F)ccc21 [Compound 7, 3-(5-Fluoro-1-methyl-1H-indol-3-yl)-4-(6-hydroxymethyl-benzofuran-3-yl)-pyrrole-2,5-dione] | 0.35 ± 0.06 nM | IC50 [3]: 237 nM |
| Cn1cc(C2=C(c3coc4cc(O)ccc34)C(=O)NC2=O)c2cc(F)ccc21 [Compound 9, 3-(5-Fluoro-1-methyl-1H-indol-3-yl)-4-(6-hydroxy-benzofuran-3-yl)-pyrrole-2,5-dione] | 3.5 ± 1.3 nM | – |
| COc1cccc2c(C3=C(c4cn(C)c5cc(Br)c(F)cc45)C(=O)NC3=O)coc12 [Compound 11, 3-(6-Bromo-5-fluoro-1-methyl-1H-indol-3-yl)-4-(7-methoxy-benzofuran-3-yl)-pyrrole-2,5-dione] | 59.7 ± 6.57 nM | – |
| COc1cccc2c(C3=C(c4cn(C)c5cc(-c6ccc(Cl)cc6)c(F)cc45)C(=O)NC3=O)coc12 [Compound 18, 3-[6-(4-Chlorophenyl)-5-fluoro-1-methyl-1H-indol-3-yl]-4-(7-methoxy-benzofuran-3-yl)-pyrrole-2,5-dione] | 7160 ± 1200 nM | – |
| C=CCOc1ccc2c(C3=C(c4cn(C)c5ccc(Br)cc45)C(=O)NC3=O)coc2c1 [Compound 24, 3-(6-Allyloxy-benzofuran-3-yl)-4-(5-bromo-1-methyl-1H-indol-3-yl)-pyrrole-2,5-dione] | 48.3 ± 7 nM | – |
| COc1cccc2c(C3=C(c4cn(C)c5c(Br)cc(Br)cc45)C(=O)NC3=O)coc12 [Compound 26, 3-(5,7-Dibromo-1-methyl-1H-indol-3-yl)-4-(7-methoxy-benzofuran-3-yl)-pyrrole-2,5-dione] | 88.7 ± 5.6 nM | – |
| Cn1cc(C2=C(c3coc4ccc(F)cc34)C(=O)NC2=O)c2cc(Cl)ccc21 [Compound 27, 3-(5-Chloro-1-methyl-1H-indol-3-yl)-4-(5-fluoro-benzofuran-3-yl)-pyrrole-2,5-dione] | 34.5 ± 3.8 nM | IC50 Ratio CDK-2/cyclinE GSK-3β [3]: 2.6; IC50 [3]: 1840 nM |
| Cn1cc(C2=C(c3coc4ccc(F)cc34)C(=O)NC2=O)c2cc(I)ccc21 [Compound 29, 3-(5-Fluoro-benzofuran-3-yl)-4-(5-iodo-1-methyl-1H-indol-3-yl)-pyrrole-2,5-dione] | 180 ± 11 nM | – |
| Cn1cc(C2=C(c3coc4cc(CO)ccc34)C(=O)NC2=O)c2cc(C#N)ccc21 [Compound 34, 3-[4-(6-Hydroxymethyl-benzofuran-3-yl)-2,5-dioxo-2,5-dihydro-1H-pyrrol-3-yl]-1-methyl-1H-indole-5-carbonitrile] | 13.2 ± 3.2 nM | – |
| Cn1cc(C2=C(c3coc4ccccc34)C(=O)NC2=O)c2cc(N3CCOCC3)ccc21 [Compound 39, 3-Benzofuran-3-yl-4-(1-methyl-5-morpholin-4-yl-1H-indol-3-yl)-pyrrole-2,5-dione] | 1300 ± 146 nM | – |
| Cn1cc(C2=C(c3coc4ccccc34)C(=O)NC2=O)c2cccc(CO)c21 [Compound 50, 3-Benzofuran-3-yl-4-(7-hydroxymethyl-1-methyl-1H-indol-3-yl)-pyrrole-2,5-dione] | 5.4 ± 0.7 nM | – |
| Cn1cc(C2=C(c3coc4cc(CO)ccc34)C(=O)NC2=O)c2cccc(CO)c21 [Compound 51, 3-(6-Hydroxymethyl-benzofuran-3-yl)-4-(7-hydroxymethyl-1-methyl-1H-indol-3-yl)-pyrrole-2,5-dione] | 5.1 ± 1.2 nM | – |
| CN1C(=O)C(c2coc3cc(CO)ccc23)=C(c2cn(C)c3ccc(F)cc23)C1=O [Compound 56, 3-(5-Fluoro-1-methyl-1H-indol-3-yl)-4-(6-hydroxymethyl-benzofuran-3-yl)-1-methyl-pyrrole-2,5-dione] | 0.35 ± 0.06 nM | – |
| Cn1cc(C2=C(c3coc4ccccc34)C(=O)NC2=O)c2cccc(CO)c21 [Compound 82] | – | IC50 Ratio CDK-2/cyclinE GSK-3β [3]: 27; IC50 [3]: 149 nM |
| Cn1cc(C2=C(c3coc4cc(CO)ccc34)C(=O)NC2=O)c2cccc(CO)c21 [Compound 83] | – | IC50 Ratio CDK-2/cyclinE GSK-3β [3]: 5; IC50 [3]: 27 nM |
| CCOC(=O)CCc1cccc2c(C3=C(c4coc5ccccc45)C(=O)NC3=O)cn(C)c12 [Compound 93] | 10.2 ± 3.6 nM | – |

Continued, in another order:

| IC50 [1] | Compound | also measured |
| --- | --- | --- |
| 550 ± 20 nM | Cn1cc(C2=C(c3coc4ccc(Br)cc34)C(=O)NC2=O)c2ccccc21 [Compound 3, 3-(5-Bromo-benzofuran-3-yl)-4-(1-methyl-1H-indol-3-yl)-pyrrole-2,5-dione] | – |
| 26 ± 6 nM | Cn1cc(C2=C(c3coc4ccccc34)C(=O)NC2=O)c2cc(F)ccc21 [Compound 6, 3-Benzofuran-3-yl-4-(5-fluoro-1-methyl-1H-indol-3-yl)-pyrrole-2,5-dione] | – |
| 335 ± 37 nM | COc1ccc(COc2ccc3c(C4=C(c5cn(C)c6ccc(Br)cc56)C(=O)NC4=O)coc3c2)cc1 [Compound 25, 3-(5-Bromo-1-methyl-1H-indol-3-yl)-4-[6-(4-methoxy-benzyloxy)-benzofuran-3-yl]-pyrrole-2,5-dione] | – |
| 690 ± 100 nM | Cn1cc(C2=C(c3coc4ccccc34)C(=O)NC2=O)c2cc(O)ccc21 [Compound 30, 3-Benzofuran-3-yl-4-(5-hydroxy-1-methyl-1H-indol-3-yl)-pyrrole-2,5-dione] | – |
| 500 ± 60 nM | Cn1cc(C2=C(c3coc4ccccc34)C(=O)NC2=O)c2cc(OCc3ccccc3)ccc21 [Compound 31, 3-Benzofuran-3-yl-4-(5-benzyloxy-1-methyl-1H-indol-3-yl)-pyrrole-2,5-dione] | – |
| 220 ± 30 nM | O=C1NC(=O)C(c2cn(CCCO)c3ccc(OCc4ccccc4)cc23)=C1c1coc2ccccc12 [Compound 32, 3-Benzofuran-3-yl-4-[5-benzyloxy-1-(3-hydroxy-propyl)-1H-indol-3-yl]-pyrrole-2,5-dione] | – |
| 235 ± 15 nM | Cn1cc(C2=C(c3coc4ccccc34)C(=O)NC2=O)c2cc(C3CC3)ccc21 [Compound 37, 3-Benzofuran-3-yl-4-(5-cyclopropyl-1-methyl-1H-indol-3-yl)-pyrrole-2,5-dione] | IC50 [3]: 32000 nM |
| 125 ± 35 nM | COc1ccc2c(c1)c(C1=C(c3coc4ccccc34)C(=O)NC1=O)cn2C [Compound 41, 3-Benzofuran-3-yl-4-(5-methoxy-1-methyl-1H-indol-3-yl)-pyrrole-2,5-dione] | – |
| 223 ± 22 nM | COc1cc2c(C3=C(c4coc5ccccc45)C(=O)NC3=O)cn(C)c2cc1I [Compound 43, 3-Benzofuran-3-yl-4-(6-iodo-5-methoxy-1-methyl-1H-indol-3-yl)-pyrrole-2,5-dione] | – |
| 1650 ± 200 nM | O=C1NC(=O)C(c2coc3ccccc23)=C1c1c[nH]c2ccc(OCc3ccccc3)cc12 [Compound 44, 3-Benzofuran-3-yl-4-(5-benzyloxy-1H-indol-3-yl)-pyrrole-2,5-dione] | IC50 [2]: 21000 nM |
| 900 ± 80 nM | Cn1cc(C2=C(c3coc4ccccc34)C(=O)NC2=O)c2ccc(OCc3ccccc3)cc21 [Compound 47, 3-Benzofuran-3-yl-4-(6-benzyloxy-1-methyl-1H-indol-3-yl)-pyrrole-2,5-dione] | – |
| 160 ± 35 nM | Cn1cc(C2=C(c3coc4ccc(F)cc34)C(=O)NC2=O)c2ccc(OCc3ccccc3)cc21 [Compound 48, 3-(6-Benzyloxy-1-methyl-1H-indol-3-yl)-4-(5-fluoro-benzofuran-3-yl)-pyrrole-2,5-dione] | IC50 [2]: 80000 nM |
| 55 ± 8 nM | Cn1cc(C2=C(c3coc4ccccc34)C(=O)NC2=O)c2cccc(O)c21 [Compound 53, 3-Benzofuran-3-yl-4-(7-hydroxy-1-methyl-1H-indol-3-yl)-pyrrole-2,5-dione] | – |
| 220 ± 45 nM | Cn1cc(C2=C(c3coc4ccccc34)C(=O)NC2=O)c2cccc(OCc3ccccc3)c21 [Compound 54, 3-Benzofuran-3-yl-4-(7-benzyloxy-1-methyl-1H-indol-3-yl)-pyrrole-2,5-dione] | – |
| 1.2 ± 0.2 nM | Cn1cc(C2=C(c3coc4ccccc34)C(=O)NC2=O)c2cccc(CCC(=O)O)c21 [Compound 86] | – |
| 0.73 ± 0.1 nM | COCc1cccc2c(C3=C(c4coc5cc(CO)ccc45)C(=O)NC3=O)cn(C)c12 [Compound 92] | – |
